Here are results for 19 compounds from patent US20240294550A1, “8-OXA-3-AZABICYCLO[3.2.1]OCTANE COMPOUNDS OR SALT THEREOF, AND PREPARATION METHOD AND USE THEREOF” (LITTDD MEDICINES LTD, priority 2021, published 2024).

By pIC50 is commonly meant the negative decadic logarithm of the IC50, by convention in mol/L. Higher therefore signals a low IC50.

Molecules are shown by their SMILES. pIC50: −log10 of the molar value. Counter-ions that a name gives are not always drawn.

The target in assay [1] is ATR (Homo sapiens (Human), UniProt Q13535). Description: ATR kinase inhibition assay (HTRF). In kind it is biochemical. The note with it: p53 substrate, ATP 150 nM. The protocol: This experiment adopted Homogeneous time-resolved fluorescence technology (HTRF®) of Cisbio Company for assay.
ATR, sequence (Q13535 whole entry): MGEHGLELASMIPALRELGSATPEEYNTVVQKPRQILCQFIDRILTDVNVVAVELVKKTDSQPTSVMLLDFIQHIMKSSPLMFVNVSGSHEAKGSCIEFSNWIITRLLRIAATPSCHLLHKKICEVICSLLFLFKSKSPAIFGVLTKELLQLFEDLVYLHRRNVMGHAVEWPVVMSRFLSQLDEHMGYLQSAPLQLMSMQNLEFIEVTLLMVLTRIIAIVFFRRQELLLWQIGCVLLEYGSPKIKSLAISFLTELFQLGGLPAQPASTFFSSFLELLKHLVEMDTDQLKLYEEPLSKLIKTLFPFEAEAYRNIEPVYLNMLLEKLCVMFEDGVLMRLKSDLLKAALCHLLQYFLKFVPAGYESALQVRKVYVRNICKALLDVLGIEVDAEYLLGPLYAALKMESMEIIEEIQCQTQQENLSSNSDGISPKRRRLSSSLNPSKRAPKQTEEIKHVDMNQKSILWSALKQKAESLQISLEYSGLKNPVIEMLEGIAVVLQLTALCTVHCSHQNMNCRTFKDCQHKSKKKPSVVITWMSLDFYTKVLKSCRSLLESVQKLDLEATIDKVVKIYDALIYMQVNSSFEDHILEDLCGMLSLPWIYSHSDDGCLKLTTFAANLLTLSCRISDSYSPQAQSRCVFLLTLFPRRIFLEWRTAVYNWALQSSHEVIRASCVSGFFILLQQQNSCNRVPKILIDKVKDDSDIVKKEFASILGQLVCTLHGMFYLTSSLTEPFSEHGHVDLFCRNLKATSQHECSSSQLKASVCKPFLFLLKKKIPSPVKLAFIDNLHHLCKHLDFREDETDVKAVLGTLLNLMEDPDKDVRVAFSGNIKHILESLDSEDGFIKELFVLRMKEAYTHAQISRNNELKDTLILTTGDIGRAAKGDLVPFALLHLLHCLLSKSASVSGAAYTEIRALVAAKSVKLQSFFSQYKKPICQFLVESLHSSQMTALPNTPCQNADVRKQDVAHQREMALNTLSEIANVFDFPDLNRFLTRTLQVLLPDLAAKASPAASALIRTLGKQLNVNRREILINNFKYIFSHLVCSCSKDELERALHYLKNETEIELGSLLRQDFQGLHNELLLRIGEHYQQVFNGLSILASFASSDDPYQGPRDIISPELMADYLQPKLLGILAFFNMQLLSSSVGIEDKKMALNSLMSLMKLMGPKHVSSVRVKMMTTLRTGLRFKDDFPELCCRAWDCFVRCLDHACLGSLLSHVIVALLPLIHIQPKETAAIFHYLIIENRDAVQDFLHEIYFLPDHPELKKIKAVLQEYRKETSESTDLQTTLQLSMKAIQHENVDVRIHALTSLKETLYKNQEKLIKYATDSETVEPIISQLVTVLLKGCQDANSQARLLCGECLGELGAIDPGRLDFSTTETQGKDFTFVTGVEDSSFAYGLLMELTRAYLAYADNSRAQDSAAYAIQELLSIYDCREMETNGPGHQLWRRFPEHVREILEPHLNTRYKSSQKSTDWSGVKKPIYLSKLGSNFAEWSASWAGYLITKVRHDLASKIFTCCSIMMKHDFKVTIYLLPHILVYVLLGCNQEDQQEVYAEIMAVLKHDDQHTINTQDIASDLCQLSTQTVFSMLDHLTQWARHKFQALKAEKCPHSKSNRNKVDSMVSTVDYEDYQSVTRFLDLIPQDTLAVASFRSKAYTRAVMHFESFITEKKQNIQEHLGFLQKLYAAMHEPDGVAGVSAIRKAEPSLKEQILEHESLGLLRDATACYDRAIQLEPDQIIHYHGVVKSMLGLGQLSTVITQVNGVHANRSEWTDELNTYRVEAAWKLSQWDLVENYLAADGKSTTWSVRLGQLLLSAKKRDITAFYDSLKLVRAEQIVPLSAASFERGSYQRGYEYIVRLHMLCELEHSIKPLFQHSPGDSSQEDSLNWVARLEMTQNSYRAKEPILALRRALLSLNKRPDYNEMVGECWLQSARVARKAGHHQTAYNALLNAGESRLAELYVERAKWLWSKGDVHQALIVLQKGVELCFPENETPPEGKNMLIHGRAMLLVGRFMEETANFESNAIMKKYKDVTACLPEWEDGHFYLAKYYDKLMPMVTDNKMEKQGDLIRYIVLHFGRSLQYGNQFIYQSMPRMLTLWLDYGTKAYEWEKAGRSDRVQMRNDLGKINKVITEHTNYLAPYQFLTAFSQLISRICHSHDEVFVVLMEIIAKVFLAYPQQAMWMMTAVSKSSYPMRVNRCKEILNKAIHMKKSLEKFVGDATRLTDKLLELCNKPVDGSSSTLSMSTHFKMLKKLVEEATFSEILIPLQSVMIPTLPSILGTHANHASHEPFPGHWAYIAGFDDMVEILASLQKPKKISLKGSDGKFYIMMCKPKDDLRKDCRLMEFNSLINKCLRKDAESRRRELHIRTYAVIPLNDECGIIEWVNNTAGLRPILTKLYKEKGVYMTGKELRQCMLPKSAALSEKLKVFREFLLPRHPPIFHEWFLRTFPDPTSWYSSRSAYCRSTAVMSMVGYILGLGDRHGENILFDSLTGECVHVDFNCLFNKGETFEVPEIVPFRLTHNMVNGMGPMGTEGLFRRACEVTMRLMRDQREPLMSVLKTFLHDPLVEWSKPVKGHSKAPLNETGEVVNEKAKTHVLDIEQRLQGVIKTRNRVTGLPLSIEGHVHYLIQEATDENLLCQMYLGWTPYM
ATR, sequence (Q8WXE1 whole entry partner): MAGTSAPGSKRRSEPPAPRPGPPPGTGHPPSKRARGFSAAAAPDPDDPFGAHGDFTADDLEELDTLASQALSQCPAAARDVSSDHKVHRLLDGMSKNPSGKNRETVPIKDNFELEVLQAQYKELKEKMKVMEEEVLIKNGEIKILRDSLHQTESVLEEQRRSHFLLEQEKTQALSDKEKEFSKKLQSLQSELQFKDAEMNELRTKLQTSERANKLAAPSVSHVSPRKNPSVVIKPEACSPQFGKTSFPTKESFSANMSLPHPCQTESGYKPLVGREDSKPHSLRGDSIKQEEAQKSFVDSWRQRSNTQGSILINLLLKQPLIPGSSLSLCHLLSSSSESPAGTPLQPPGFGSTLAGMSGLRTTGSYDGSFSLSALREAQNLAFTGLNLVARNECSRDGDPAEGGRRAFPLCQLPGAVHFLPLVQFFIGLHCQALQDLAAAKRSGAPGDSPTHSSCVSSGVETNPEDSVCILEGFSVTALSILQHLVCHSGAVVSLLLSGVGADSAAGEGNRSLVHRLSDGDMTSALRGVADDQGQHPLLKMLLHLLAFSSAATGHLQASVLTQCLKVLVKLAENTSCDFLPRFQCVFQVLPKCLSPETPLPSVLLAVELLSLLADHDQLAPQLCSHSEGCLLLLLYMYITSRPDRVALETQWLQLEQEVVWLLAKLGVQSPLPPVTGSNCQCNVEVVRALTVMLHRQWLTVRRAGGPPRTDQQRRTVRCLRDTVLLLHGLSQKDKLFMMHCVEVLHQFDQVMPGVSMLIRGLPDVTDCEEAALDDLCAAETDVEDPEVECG
Experiment method: buffers were prepared as follows:
Preparation of solutions of the test compounds: The example compounds shown in the table below were prepared into solutions using DMSO as solvent, the stock solution typically being 10 mM. The maximum starting concentration in this experiment was 3 μM, DMSO 3-fold serial dilutions for concentrations, the serially diluted solution was added to each well of the corresponding 384-well plate (geriner bio-one, Cat #784075) to give final concentrations of 3000, 1000, 333, 111, 37, 12.3, 4.12, 1.37, 0.457, 0.152 nM, respectively, and the corresponding amount of DMSO was added to the additional wells to be used as negative or positive control wells, respectively.
The enzyme and substrate were separately dissolved and diluted in two tubes with the buffer prepared above at the following concentrations:
5 μL of the ATR protein solution from tube A was added to the compound-containing wells and the negative control wells in the assay plates using an electric multichannel pipettor, and the same volume of the prepared buffer (medium only, no enzyme) was added to the positive control wells. The plates were centrifuged for one minute at 1000 rpm, and then placed in an incubator at 25° C. for 15 minutes. 5 μL of the substrate mix solution from tube B was added to the positive control well, negative control well and the compound-containing well of the assay plates in the same manner, centrifuged and incubated at 25° C. for 90 minutes.
During the reaction, after ATR phosphorylated the substrate p53, two antibodies were added. Among them, anti-phospho-p53-Eu, as an energy donor, can specifically bind to the phosphorylation site of p53, while anti-GST-d2, as an energy receptor, can specifically bind to the GST-tagged p53. Upon excitation by a laser with certain wavelength (the excitation wavelength in this experiment is 340 nm), the energy donor can emit emission light of 615 nm, and when the energy donor and the energy receptor are close enough in space (that is, two antibodies are connected to p53 at the same time), energy transfer can occur between the energy donor and the energy receptor, so that the energy receptor can emit emission light of 665 nm. The two emission lights were detected by a plate reader, and the ratio of the signals at 665 nm and 615 nm was calculated. The IC50 of the samples tested can be obtained by plotting and calculation.
10 μL per well of the detection solution was added to the positive control, negative control and compound wells of the assay plate using an electric multichannel pipette, centrifuged and incubated overnight at 4° C., and read with the plate reader Envision 2104.
Compound inhibition rate was calculated using interpolation. The mean values of the positive and negative controls were calculated respectively, and the following formula was used to calculate the inhibition rates of the compounds:
Inhibition rate Minimum response+(Compound concentration ^Curve slope)*(Maximum response−Minimum response)/(Compound concentration^Curve slope+Half inhibition concentration ^Curve slope)
The IC50 value of each compound to enzyme activity was obtained.
Background: Time-resolved FRET reads energy transfer from a long-lived donor to a nearby acceptor.

Assay [2] concerns LOVO cells. Nature of the assay: Cell proliferation assay (CellTiter-Glo). The assay is classed as cell-based. The settings on record: Homo sapiens, 96 hours. On the procedure: The cell proliferation inhibition effect of the compound of the invention was tested using CellTiter-Glo™ cell viability assay kit. This kit uses luciferase as the detector. During the luminescence process, the luciferase requires the participation of ATP. CellTiter-Glo™ reagent was added to the cell culture medium, and the luminescence value was measured. The light signal is proportional to the amount of ATP present in the system, and ATP positively correlates with the number of viable cells present, thus the cell proliferation activity is measured.
Cell culture and seeding: LOVO cells in logarithmic growth phase (human colon carcinoma cells) (ATCC CCL-229) were harvested and counted using a platelet counter. Trypan blue exclusion method was used to detect the cell viability to ensure that the cell viability was above 90%. 90 μL of cell suspension (RPMI1640+10% fetal bovine serum) was added to a 96-well transparent flat-bottom black-wall plate (Thermo, 165305) respectively, and the cell concentration was adjusted to 3000/well/90 μl. Cells in the 96-well plate were incubated overnight at 37° C., 5% CO2 with 95% humidity (Thermo, Model 3100 Series).
Firstly, DMSO was used as the solvent to prepare 10 mM mother solution of the test compounds, and then PBS was used to dilute 100 times to prepare a solution of 10 times of final concentration, the highest concentration was 100 μM. 10 μL solution of the test compounds was added to each well of the 96 well plate inoculated with cells, namely the solution was further diluted 10 times to reach the final concentration of 10 μM. Starting from 10 μM, the final concentration of the test compound was 3-fold serially diluted, with 9 concentrations in total with 3 triplicates for each concentration. The 96 well plates with the test compounds and cells were incubated at 37° C., 5% CO2 and 95% humidity for 96 hours, and then CellTiter Glo analysis was performed.
CellTiter-Glo Reagents (CellTiter Glo R Luminescent Cell Viability Assay, Promega, G7572) were melted and the 96-well plates were equilibrated to room temperature for 30 minutes. An equal volume of CellTiter-Glo solution was added to each well, and the cells were lysed by shaking on the fixed orbit shaker for 5 minutes. The assay plates were left at room temperature for 20 minutes to stabilize the luminescence signal, and the luminescence signals were read using the SpectraMax multi-labeled microplate detector (MD, M3).
Data were analyzed using GraphPad Prism 7.0 software, fitted with non-linear S-curve regression to derive the dose-response curves, and IC50 values were calculated therefrom.
Cell survival rate (%)=(LumDrug to be tested−LumCulture medium control)/(LumCell control−LumCulture medium control)×100%
A general note: In ATP-based viability assays light output follows the ATP content of the culture.

`C[C@@H]1COCCN1c1cc(N2CC3CCC(C2)O3)nn2c(-c3cc[nH]n3)cnc12` [Example 2, 3-(8-((R)-3-methylmorpholino)-3-(1H-pyrazol-3-yl)imidazo[1,2-b]pyridazin-6-yl)-8-oxa-3-azabicyclo[3.2.1]octane]: the pIC50 in assay [1] was 7.39; in assay [2], 6.32.
For `C[C@@H]1COCCN1c1c(Cl)c(N2CC3CCC(C2)O3)nn2c(-c3cc[nH]n3)ncc12` [Example 4, 3-(3-chloro-4-((R)-3-methylmorpholino)-7-(1H-pyrazol-3-yl)imidazo[1,5-b]pyridazin-2-yl)-8-oxa-3-azabicyclo[3.2.1]octane], in that order: 7.69 and 6.85.
On to `c1cc(-c2ncc3c(N4CCOCC4)cc(N4CC5CCC(C4)O5)nn23)n[nH]1` [Example 7, 3-(4-morpholino-7-(1H-pyrazol-3-yl)imidazo[1,5-b]pyridazin-2-yl)-8-oxa-3-azabicyclo[3.2.1]octane], for which, in assay [1], the pIC50 was 7.67.
On to `c1cc(-c2ncc3c(N4C5CCC4COC5)cc(N4CC5CCC(C4)O5)nn23)n[nH]1` [Example 8, 8-(2-(8-oxa-3-azabicyclo[3.2.1]octan-3-yl)-7-(1H-pyrazol-3-yl)imidazo[1,5-b]pyridazin-4-yl)-3-oxa-8-azabicyclo[3.2.1]octane], for which the negative logarithm of the IC50 (pIC50) in assay [1] is 7.74; in assay [2], 6.61.
For `C[C@@H]1CNCCN1c1cc(N2CC3CCC(C2)O3)nn2c(-c3cc[nH]n3)ncc12` [Example 9, 3-(4-((R)-2-methylpiperazin-1-yl)-7-(1H-pyrazol-3-yl)imidazo[1,5-b]pyridazin-2-yl)-8-oxa-3-azabicyclo[3.2.1]octane formate] the same measures were 7.10 and 6.23.
In assay [1], `c1cc(-c2ncc3c(N4CCNCC4)cc(N4CC5CCC(C4)O5)nn23)n[nH]1` [Example 10, 3-(4-(piperazin-1-yl)-7-(1H-pyrazol-3-yl)imidazo[1,5-b]pyridazin-2-yl)-8-oxa-3-azabicyclo[3.2.1]octane formate] had a pIC50 of 6.84.
For `C[C@@H]1CN(C)CCN1c1cc(N2CC3CCC(C2)O3)nn2c(-c3cc[nH]n3)ncc12` [Example 11, 3-(4-((R)-2,4-dimethylpiperazin-1-yl)-7-(1H-pyrazol-3-yl)imidazo[1,5-b]pyridazin-2-yl)-8-oxa-3-azabicyclo[3.2.1]octane formate], the figures for the pIC50 in assay [1] and in assay [2] were 7.65 and 5.58, respectively.
For the compound `c1cc(-n2ncc3c(N4CC5CCC(C4)O5)cc(N4CC5CCC(C4)O5)nc32)n[nH]1` [Example 12, 3-(6-(-8-oxa-3-azabicyclo[3.2.1]octan-3-yl)-1-(1H-pyrazol-3-yl)-1H-pyrazolo[3,4-b]pyridin-4-yl)-8-oxa-3-azabicyclo[3.2.1]octane], the pIC50 in assay [1] was 7.77.
Same read-out and setting: under `Cn1nc(-c2cc[nH]n2)c2nc(N3CC4CCC(C3)O4)cc(N3CC4CCC(C3)O4)c21` [Example 13, 3-(7-(8-oxa-3-azabicyclo[3.2.1]octan-3-yl)-1-methyl-3-(1H-pyrazol-3-yl)-1H-pyrazolo[4,3-b]pyridin-5-yl)-8-oxa-3-azabicyclo[3.2.1]octane] stands 7.74.
For `FC1(F)CCN(c2cc(N3CC4CCC(C3)O4)nn3c(-c4cc[nH]n4)ncc23)CC1` [Example 14, 3-(4-(4,4-difluoropiperidin-1-yl)-7-(1H-pyrazol-3-yl)imidazo[1,5-b]pyridazin-2-yl)-8-oxa-3-azabicyclo[3.2.1]octane], the figures for the pIC50 in assay [1] and in assay [2] were 8.10 and 6.38, respectively.
For `C[C@H]1COCCN1c1cc(N2CC3CCC(C2)O3)nn2c(-c3cc[nH]n3)ncc12` [Example 15, 3-(4-((S)-3-methylmorpholino)-7-(1H-pyrazol-3-yl)imidazo[1,5-b]pyridazin-2-yl)-8-oxa-3-azabicyclo[3.2.1]octane], in that order: 7.66 and 6.73.
`C[C@@H]1CN(c2cc(N3CC4CCC(C3)O4)nn3c(-c4cc[nH]n4)ncc23)C[C@H](C)O1` [Example 16, 3-(4-(cis-2,6-dimethylmorpholino)-7-(1H-pyrazol-3-yl)imidazo[1,5-b]pyridazin-2-yl)-8-oxa-3-azabicyclo[3.2.1]octane]: the results for the pIC50 in assay [1] and in assay [2] were 7.66 and 6.51, respectively.
Consider `c1cc(-c2ncc3c(N4CCCCC4)cc(N4CC5CCC(C4)O5)nn23)n[nH]1` [Example 17, 3-(4-(piperidin-1-yl)-7-(1H-pyrazol-3-yl)imidazo[1,5-b]pyridazin-2-yl)-8-oxa-3-azabicyclo[3.2.1]octane], for which, in assay [1], the pIC50 is 7.49.
`CC1CN(c2cc(N3CC4CCC(C3)O4)nn3c(-c4cc[nH]n4)ncc23)CCO1` (stereo not shown) [Example 18, 3-(4-(2-methylmorpholino)-7-(1H-pyrazol-3-yl)imidazo[1,5-b]pyridazin-2-yl)-8-oxa-3-azabicyclo[3.2.1]octane] had a pIC50 in assay [1] of 7.29.
`C[C@@H]1COCCN1c1cc(N2CC3CCC(C2)O3)nc2c(-c3cc[nH]n3)nn(C)c12` [Example 19, 3-(1-methyl-7-((R)-3-methylmorpholino)-3-(1H-pyrazol-3-yl)-1H-pyrazolo[4,3-b]pyridin-5-yl)-8-oxa-3-azabicyclo[3.2.1]octane] gave a pIC50 in assay [2] of 6.21.
For `CC1(C)COCCN1c1cc(N2CC3CCC(C2)O3)nn2c(-c3cc[nH]n3)ncc12` [Example 20, 3-(4-(3,3-dimethylmorpholino)-7-(1H-pyrazol-3-yl)imidazo[1,5-b]pyridazin-2-yl)-8-oxa-3-azabicyclo[3.2.1]octane], the results for the pIC50 in assay [1] and in assay [2] were 8.85 and 7.41, respectively.
`OC1(c2cc(N3C[C@H]4CC[C@@H](C3)O4)nc3c(-c4ccn[nH]4)cnn23)CCOCC1` [Example 23, 4-(5-((1R,5S)-8-oxa-3-azabicyclo[3.2.1]octan-3-yl)-3-(1H-pyrazol-5-yl)pyrazolo[1,5-a]pyrimidin-7-yl)tetrahydro-2H-pyran-4-ol]: the pIC50 in assay [1] was 7.07.
Same read-out and setting: to `Cn1nccc1-c1cc(N2CC3CCC(C2)O3)nn2c(-c3cc[nH]n3)cnc12` [Example 27, 3-(8-(1-methyl-1H-pyrazol-5-yl)-3-(1H-pyrazol-3-yl)imidazo[1,2-b]pyridazin-6-yl)-8-oxa-3-azabicyclo[3.2.1]octane] belongs 6.83; to `CC1CC(F)(F)CCN1c1cc(N2CC3CCC(C2)O3)nn2c(-c3cc[nH]n3)ncc12` (stereo not shown) [Example 30, 3-(4-(4,4-difluoro-2-methylpiperidin-1-yl)-7-(1H-pyrazol-3-yl)imidazo[1,5-b]pyridazin-2-yl)-8-oxa-3-azabicyclo[3.2.1]octane], 8.28.
